From US7741372B2, “Guanylhydrazones useful for treating diseases associated with T cell activation” (Cytokine PharmaSciences, Inc., priority 1996, dated 2010)
pIC50: −log10 of the molar value.

Columns and labels:
[1] = test system: HIV-1; settings: AIDS patients; cited from earlier work
[2] = test system: HIV 1-LAV; assay: HIV replication in PHA-activated primary T cells, reverse transcriptase (RT) assay; format: cell-based
Protocol: (§1) Cell lysates were prepared for immunoprecipitation and immunoblotting 15 minutes after administration of LPS. In FIGS. 2B, 2C and 2D PHA-activated T cells were pretreated with control diluent or various concentrations of CNI-1493 for one hour, infected with HIV 1-LAV as in FIG. 1, and cultured for 10 days. FIG. 2B is a graph of dose-dependent inhibition by CNI-1493 of HIV-infection as assessed by the accumulation of reverse transcriptase (RT) at day 6 of culture. FIG. 2C is a graph of HIV inhibition by […] CNI-1493 over time. FIG. 2D is an immunoblot of phospho-p38 MAPK expression in HIV-1 infected cells on day 6 after culture treated with/without […] CNI-1493.
This example illustrates a role for the p38 MAP kinase pathway in HIV-1 infection of primary T cells, specifically addressing the hypothesis that activation of p38 MAPK is required for HIV-1 infection of primary T lymphocytes. For studies of human T cells, buffy coats were obtained by elutriation from normal human donors to the Long Island Blood Bank Services. Peripheral blood mononuclear cells (PBMC's) were isolated by density gradient centrifugation through Ficoll-Hypaque (Hypaque, Pharmacia). […]
Primary T cells activated with PHA were pretreated (or not) with CNI-1493 for one hour, infected with the LAV strain of HIV, and RT activity measured at various time points after infection, up to 10 days.

[3] = molecular target: T1, p38 MAP kinase (Homo sapiens, UniProt Q16539); assay: p38 MAP kinase activity (GST-ATF2 phosphorylation) in Jurkat cells stimulated with anti-CD3/anti-CD28; format: cell-based
T1 construct: Endogenous p38 was immunoprecipitated with polyclonal p38 antibody; endogenous in cells; host or cells: Jurkat cells (ATCC)
T1 sequence (Q16539 whole entry): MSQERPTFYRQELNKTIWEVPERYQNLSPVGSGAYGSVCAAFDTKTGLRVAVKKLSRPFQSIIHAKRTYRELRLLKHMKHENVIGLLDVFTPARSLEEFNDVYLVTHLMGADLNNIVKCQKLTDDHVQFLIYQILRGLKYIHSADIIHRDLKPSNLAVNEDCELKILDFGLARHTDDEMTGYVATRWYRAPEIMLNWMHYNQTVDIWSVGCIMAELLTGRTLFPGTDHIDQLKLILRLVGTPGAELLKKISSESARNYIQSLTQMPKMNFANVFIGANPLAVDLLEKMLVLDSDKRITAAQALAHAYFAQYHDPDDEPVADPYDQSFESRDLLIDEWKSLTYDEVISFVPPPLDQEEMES
Excerpt: For studies of human T cells, buffy coats were obtained by elutriation from normal human donors to the Long Island Blood Bank Services. Peripheral blood mononuclear cells (PBMC's) were isolated by density gradient centrifugation through Ficoll-Hypaque (Hypaque. Pharmacia); typically one preparation yielded 200×10^6 cells. T cells were isolated by passing through a T cell column (R&D) as per manufacturer's instructions. Jurkat cells were obtained from ATCC and maintained in DMEM containing 10% heat-inactivated fetal bovine serum, antibiotics and L-glutamine.
A rabbit polyclonal antibody against p38, and the recombinant GST-AFT2 plasmid where a gift of Dr. Roger Davis (Howard Hughes Institute, Worcester, Mass.). A GST-AFT2 fusion protein was purified by affinity chromatography using glutatione-agarose, as per manufacturer's instructions (Pharmacia, Inc.). The human monoclonal anti-CD3 antibody was purchased from Pharmingen and a human monoclonal anti-CD28 antibody was purchased.
Whole cell lysates were prepared using kinase lysis buffer, containing a final concentration of 20 mM Tris pH 7.5, 10% glycerol, 1% Triton X-100, 0.137M NaCl, 25 mM B-glycerophosphate, 2 mM EDTA, 1 mM orthovanadate, 2 mM pyrophosphate, 10 μg/ml Leupeptin, 1 mM PMSF. Proteins were fractionated on a 12% SDS-PAGE gel, transferred by electrophoresis to PVDF membranes (Biorad, Inc.) and probed with a 1:1000 dilution of a rabbit polyclonal antibody that immunospecifically recognizes phosphorylated human p38 MAPK (Santa Cruz Biotechnology, Inc.). Binding to antibody was detected using enhanced chemiluminescence (Amersham International PLC).
2-5×10^6 cells were lysed after appropriate pretreatment in 500-1000 μl kinase lysis buffer and centrifuged at 14,000×g for 15 minutes at 4° C. Endogenous p38 was immunoprecipitated with polyclonal p38 antibody prebound to protein-A agarose for one hour at room temp. […]

[4] = test system: p38 MAPK; assay: phospho-p38 MAPK levels in HIV-1 infected T cells (immunoprecipitation/immunoblot); format: cell-based, human
Protocol: as §1
T cells were infected with HIV 1-LAV in the presence of […] 18-mer, refed every 3-4 days with media containing fresh oligomer and supernatants collected at various time points for RT assay. Simultaneously, cells were also plated, treated similarly and harvested for phospho-p38 MAPK levels assayed by immunoprecipitation at various time points as measured by RT assay. Shown in this figure is the effect of addition of sense and antisense p38 MAPK oligonucleotide on phospho-p38 levels and its correlation with HIV replication, as measured by RT.
Whole cell lysates were prepared using kinase lysis buffer containing a final concentration of 20 mM Tris pH 7.5, 10% glycerol, 1% Triton X-100, 0.137M NaCl, 25 mM B-glyceropliospliate. […]

[5] = test system: TNF; assay: TNF production by macrophages activated by LPS; format: cell-based
Excerpt: (§2) This example illustrates an experiment showing that an exemplary guanylhydrazone-substituted compound, CNI-1493 (N,N′-bis(3,5-diacetylphenyl)decanediamide tetrakis(amidinohydrazone) tetrahydrochloride) inhibited the p38 MAP kinase pathway. […] Further evidence for the mechanism of translation suppression was given by experiments using constructs in which the 5′UTR and the 3′UTR of TNF to drive expression of a reporter molecule. Both the 5′UTR and the 3′UTR regions of the TNF gene were required to elicit maximal translation suppression by CNI-1493. The effect of CNI-1493 on p38 MAPK was next determined as p38 MAPK has been implicated in the regulation of TNF translation.

[6] = molecular target: T2, p38 MAPK (Homo sapiens, UniProt Q16539); assay: p38 MAPK activity in human PBMC's after addition of LPS; format: cell-based; settings: human PBMC's pretreated with compound
T2 construct: endogenous in cells; host or cells: human PBMCs
T2 sequence (Q16539 whole entry): as above
Excerpt: as §2

[7] = test system: human T lymphocytes; assay: T lymphocyte activation measured by IL-2 synthesis after a-CD3 and a-CD28 stimulation; format: cell-based; settings: human T lymphocytes stimulated with a-CD3 and a CD28
Excerpt: Without being limited by any theory regarding the mode of action of the multivalent guanylhydrazones, these compounds may work by disrupting the p38 MAPK pathway. p38 MAP kinase pathway plays a critical role in the activation of human T lymphocytes and this pathway is inhibited by the multivalent guanylhydrazone compounds. […] The activation of the p38 MAP kinase pathway was inhibited by the addition of a multivalent guanylhydrazone to the stimulated T lymphocytes. […] In addition, the assays of the present invention may include other in vivo assays to measure the effects of the test compounds on T cell activation. For example, test compounds may be assayed for their ability to inhibit activation of T cells. In such assays, test compounds may be added to T cells co-stimulated with a-CD3 and a-CD28. The stimulation of the T cells should result in the synthesis and secretion of cytokines, such as IL-2.

[8] = test system: MIP 1α and MIP 1β; assay: MIP-1α and MIP-1β levels by sandwich ELISA in HIV 1-LAV infected primary T cells; format: cell-based, human
Protocol: Assays were done in triplicate and error bars represent standard deviation of the mean.
Because ideal anti-HIV therapies would not interfere with the ability of the host to mount its own defense, it was also evaluated whether inhibition of the p38 MAP kinase signal transduction pathway inhibits chemokine production in T cells. Levels of MIP 1α and MIP 1β during LAV infection of primary T cells were not decreased by CNI-1493 (FIG. 4). MIP 1α and 1β levels dropped slightly late in HIV-1 infection (day 9).

[9] = 1 μM 18-mer, day 7 and day 10 after infection, FIG. 3

For `CC(C)c1nc(CN(C)C(=O)N[C@H](C(=O)N[C@@H](Cc2ccccc2)C[C@H](O)[C@H](Cc2ccccc2)NC(=O)OCc2cncs2)C(C)C)cs1` [ABT-538], the CD4 lymphocyte counts [1] is listed as “rise substantially” and the “plasma HIV-1 levels” value [1] is listed as “decrease exponentially”.
In the case of `CC(=NNC(=N)N)c1cc(NC(=O)CCCCCCCCC(=O)Nc2cc(C(C)=NNC(=N)N)cc(C(C)=NNC(=N)N)c2)cc(C(C)=NNC(=N)N)c1.Cl.Cl.Cl.Cl` [CNI-1493, N,N′-bis(3,5-diacetylphenyl)decanediamide tetrakis(amidinohydrazone) tetrahydrochloride], the pIC50 ([2]; primary T cells activated with PHA, pretreated one hour, LAV strain of HIV, RT activity, FIG. 2B, read-out: IC50 of inhibition of HIV replication in T-cells) was about 6.30, the “effect on anti-CD3 stimulated p38 MAPK activity” value ([3]; anti-CD3 alone) was “unaffected” and the “inhibition of stimulated p38 MAPK activity” value ([3]; anti-CD28 stimulation (as worded: stimulation of p38 MAPK), dose of 1.5 μM) was “approximately 50%”. For the same compound, the “inhibition of p38 MAPK activity on co-stimulation with anti-CD3 and anti-CD28” value ([3]; dose of 1.5 μM) was “inhibited completely”, the “p38 MAP kinase activity in HIV-infected T cells” value ([4]; 1 μM, FIGS. 2C, 2D) was “suppression of p38 MAP kinase activity” and the “TNF production by macrophages activated by LPS” value [5] was “inhibit TNF production”. The “synthesis of 26 kDA membrane form of TNF” value [5] was “blocked the synthesis”, the “p38 MAPK activity after the addition of LPS” value [6] was “suppression of p38 MAPK activity” and the “activation of T lymphocytes as measured by IL-2 synthesis” value [7] was “inhibition of activation of the T lymphocytes”. For the same compound, the “level of MIP 1α during LAV infection of primary T cells” value ([8]; FIG. 4) was “not decreased”, the “level of MIP 1β during LAV infection of primary T cells” value ([8]; FIG. 4) was “not decreased” and the “chemokine levels (MIP 1α and 1β) day 6” value ([8]; day 6 of HIV-1 infection) was “slightly elevated”. For the same compound, the “chemokine levels (MIP 1α and 1β) day 9” value ([8]; day 9 of HIV-1 infection) was “normal”.
In the case of “p38 MAP kinase antisense oligonucleotides: 18-mer phosphothiorate oligonucleotide, antisense to bp 324-341 of human p38 MAPK, 5′GTCTTGTTCAGCTCCTGC3′”, the “HIV replication as measured by RT” value [2, 9] was “decreased HIV replication” and the “phospho-p38 MAPK activity” value [4, 9] was “decrease in phospho-p38 MAPK activity”.
